From patent publication EP1369120B1 (priority 2002, dated 2003) come the findings set out here.

Assay [1] deals with HCV sub-genomic replicons (Ava.5). Kind of assay: microbe, parasite or virus in culture. The assay is classed as cell-based, hepatitis C virus.
In assay [2] the test system is Huh-7 cells containing HCV sub-genomic replicons (Ava.5). Kind of assay: cells. Type of assay: cell-based.
The next assay relates to HCV. Type of assay: cell-based. Conditions: 300 nM As2O3 (data not shown).
The mark [3] stands for this setting: huh-7 hcv replicon cells, 1440 min, 1 µM.
Where [4] appears, read: huh-7 hcv replicon cells, 4320 min, 0.01 µM.
[5] abbreviates: huh-7 hcv replicon cells, 4320 min, 0.05 µM.
Where [6] appears, read: huh-7 hcv replicon cells, 4320 min, 0.1 µM.
The mark [7] stands for this setting: huh-7 hcv replicon cells, 4320 min, 1 µM.

Where “and” joins values, the source holds several entries; their conditions need not be identical. Equal entries are not always repeated. Where two headings read alike, the source gives them in different places.

Regarding `O=[As]O` [Sodium arsenite], the EC50 (in general, the concentration at which the effect is half-maximal) in assay [1] (Hepatitis C virus, Ava5, 24 h) came to 250 nM. The compound also gave an IC50 in assay [2] (Hepatitis C virus, Ava5, 24 h) of 10000 nM.
For “Potassium antimony tartrate [Potassium antimony tartrate (PAT)]”, the “inhibition of HCV replication” value in assay [1] (5 µM) was 75 % inhibition of HCV replication at 5 µM of PAT treatment. In addition, the IC50 in assay [2] (read-out: IC50) was found to be 35000 nM.
For arsenic trioxide [As2O3], the “inhibition of replication of HCV RNA” value in assay [1] is given as “dose-dependent manner”. Also, in assay [1] (setting [3]), the “negative strand of HCV RNA detected (relative copy number)” value came to 14.1% and the “positive strand of HCV RNA detected (relative copy number)” value was 15.6%. Moreover, in assay [1] (setting [4]), the “relative HCV RNA level (negative strand)” value is listed as 135.3% and the “relative HCV RNA level (positive strand)” value worked out at 95.1%. In addition, in assay [1] (setting [5]), the “relative HCV RNA level (negative strand)” value is given as 74.3% and the “relative HCV RNA level (positive strand)” value was 70%. In assay [1] (setting [6]), the “relative HCV RNA level (negative strand)” value is 67.5% and the “relative HCV RNA level (positive strand)” value is 57.5%. For the same compound, in assay [1] (setting [7]), the “negative strand HCV RNA detected (relative copy number)” value is given as 2.6% and the “positive strand RNA detected (relative copy number)” value turned out to be 6.1%. In addition, the EC50 in assay [1] (read-out: EC50) was 260 nM and 190 nM and 270 nM and 160 nM and 200 nM. In assay [2] (read-out: IC50), the IC50 was 6000 nM. In addition, the IC50 in assay [2] (read-out: ICso (concentration which causes 50% cell death)) was 8500 nM and 4800 nM. In addition, in the assay on HCV, the “inhibition of the replication” value is reported as “completely”.
